From EP1127574A1, “Use of chitinous materials for inhibiting cellular nitric oxide production” (Food Industry Research and Development Institute, priority 2000, dated 2001)

Columns and labels:
RAW 264.7 cells [1] = experiment: Cytotoxicity test (MTT dye), RAW 264.7; assay type: cell-based, mouse
Description: (§1) Cell culture. NIH/3T3 (mouse embryo fibroblast, CCRC 60008) and RAW 264.7 (mouse monocyte/macrophage, CCRC 60001) cell lines were obtained from Culture Collection and Research Center (CCRC), Taiwan. Both cell lines were cultured in Dulbecco's modified essential medium (DMEM, GIBCO BRL, Rockville, MD) containing 1.5 g/L NaHCO3 supplemented with 10% fetal bovine serum (Hyclone, Logan, UT) and incubated in 5% CO2 at 37°C. Cell cultures were examined for mycoplasma contamination with the fluorescent stain Hoechst 33258 (Hay et al., ATCC Quality Control Methods for Cell Lines, American Type Culture Collection, Manassas, VA, 1992, pp 23-33). All cultures described in the present example were mycoplasma-free.
Collagen/chitin-coated wells. Two mixtures were prepared. A mixture of collagen type I (rat tail, Sigma, St. Louis, MO) was dissolved in 0.1 N acetic acid to produce a 1 mg/ml collagen solution. […]
Cytotoxicity test. […] Cytotoxicity was measured using the dye 3-(4,5-dimethylthiazol-2-yl)-2,5-diphenyl tetrazolium bromide (MTT; Merck Co., Germany) and following the methods described in Mosmann, J. Immunol. […]
The cytotoxicity associated with chitin and chitosan was evaluated for both mouse embryonic fibroblast NIH/3T3 cells and mouse monocyte-macrophage RAW 264.7 cells. […]

RAW 264.7 cells [2] = experiment: Measurement of NO production via nitrite detection (Griess reagents) in IFN-γ and LPS activated macrophages; assay type: cell-based, mouse; settings: for effect on NO production (in words): activated RAW 264.7 cells
Description: as §1
Collagen/chitin-coated wells. Two mixtures were prepared. A mixture of collagen type I (rat tail, Sigma, St. Louis, MO) was dissolved in 0.1 N acetic acid to produce a 1 mg/ml collagen solution. Chitin was added to 0.1 N acetic acid until a 1 mg/ml mixture was achieved, and the mixture was sonicated for 3 minutes using a Labsonic U sonicator, (Braun Biotech International, Germany). After being autoclaved at 121°C for 15 minutes, the chitin mixture became a slurry of fine wires. Microtiter tissue culture plates (96-well) were rinsed with Dulbecco's phosphate-buffer saline without Ca^+2 and Mg^+2 (D-PBS, GIBCO BRL). Five microliters of collagen solution or different amounts of the chitin mixture were then added to each well. The plates were then air-dried in a laminar flow hood and stored at 4°C for up to a week.
Measurement of NO production via nitrite detection. Nitric oxide (NO) production was indirectly quantified by measuring the accumulation of nitrite (NO2^-) in the culture media using Griess reagents and sodium nitrite as a standard (Green et al., Anal. Biochem. 126:131-138, 1982; and Ignarro et al., Proc. Natl. Acad. Sci. USA 90:8103-8107, 1993). For nitrite assays, RAW 264.7 cells were subcultured in coated 96-well tissue culture plates at 1 x 10^5 cells/well and incubated for 24 hours. The culture media were changed to phenol red-free, serum-free DMEM containing 100 U/ml interferon-γ (IFN-γ, recombinant murine; GIBCO BRL) and 100 ng/ml lipopolysaccharide (LPS, Escherichia coli serotype O128:B12; Sigma). The samples were then tested as described in Rollo et al., J. Leukoc. Biol. 60:397-404, 1996.
To measure the effect of chitin on NO production, cells were subcultured directly in the chitin-coated 96-well tissue culture plates. After overnight incubation, cells became adhered to the bottom of chitin-coated wells. The culture media were removed and replaced with media supplemented with IFN-γ and LPS as described above. After 48 hours incubation, […] of culture supernatants were mixed sequentially with equal volumes of 60 mM sulfanilamide (Sigma) in 3 N HCl and 4 mM N-1-naphthylethylenediamine (Sigma) and then shaken for 5 minutes at room temperature as described in Rollo et al., supra. Nitrite concentration was measured by reading the sample's absorbance at 540 nm using a microplate reader (MRX, Dynex Technologies, Inc., VA).

[3] = 10 µg/ml in culture medium, activated RAW 264.7
[4] = Mus musculus, RAW264.7, 48 h, 10 µg/ml in culture medium, activated RAW 264.7, read-out: Nitrite Production as Percentage of Control
[5] = 2 µg/ml in culture medium, activated RAW 264.7
[6] = 10 µg/ml in culture medium, activated RAW 264.7, 2880 min

## CC(=O)N[C@H]1C(O)O[C@H](CO)[C@@H](O)[C@@H]1O (stereo partly shown) [NAGA, N-acetylglucosamine, reference compound]
RAW 264.7 cells [1]
  cytotoxicity: not cytotoxic
RAW 264.7 cells [2]; [3]
  Nitrite Production: 66.7 ± 0.9 µM
RAW 264.7 cells [2]; [4]
  activity at 10 µg/mL: 102%

## chitohexose
RAW 264.7 cells [2]; [5]
  Nitrite Production: 41.3 ± 0.8 µM
  Nitrite Production as Percentage of Control: 63 Percentage of Control
RAW 264.7 cells [2]; [3]
  Nitrite Production: 35.8 ± 2.9 µM
RAW 264.7 cells [2]; [6]
  Nitrite Production as Percentage of Control: 54.5 Percentage of Control
RAW 264.7 cells [2]
  effect on NO production (in words): did substantially decrease NO production

## chitotriose
RAW 264.7 cells [2]; [5]
  Nitrite Production: 61.5 ± 0.9 µM
  Nitrite Production as Percentage of Control: 93.8 Percentage of Control
RAW 264.7 cells [2]; [3]
  Nitrite Production: 61.1 ± 0.2 µM
RAW 264.7 cells [2]; [6]
  Nitrite Production as Percentage of Control: 93.1 Percentage of Control

## N[C@H]1C(O)O[C@H](CO)[C@@H](O)[C@@H]1O (stereo partly shown) [glucoseamine, glucosamine, reference compound]
RAW 264.7 cells [1]
  cytotoxicity: not cytotoxic
RAW 264.7 cells [2]; [3]
  Nitrite Production: 64.3 ± 0.8 µM
RAW 264.7 cells [2]; [4]
  activity at 10 µg/mL: 98%

## chitotetraose
RAW 264.7 cells [2]; [5]
  Nitrite Production: 63.4 ± 0.5 µM
  Nitrite Production as Percentage of Control: 96.6 Percentage of Control
RAW 264.7 cells [2]; [3]
  Nitrite Production: 61.3 ± 0.6 µM
RAW 264.7 cells [2]; [6]
  Nitrite Production as Percentage of Control: 93.4 Percentage of Control

## CC(=O)N[C@H]1[C@H](O[C@H]2[C@H](O)[C@@H](NC(C)=O)C(O)O[C@@H]2CO)O[C@H](CO)[C@@H](O)[C@@H]1O (stereo partly drawn) [chitobiose, 2-acetamido-2-deoxy-4-O-(2-acetamido-2-deoxy-b-D-glucopyranosyl)-D-glucopyranose]
RAW 264.7 cells [2]; [5]
  Nitrite Production: 64.9 ± 0.8 µM
RAW 264.7 cells [2]; [3]
  Nitrite Production: 64.1 ± 0.9 µM
RAW 264.7 cells [2]; Mus musculus, RAW264.7, 48 h, 2 µg/ml in culture medium, activated RAW 264.7, read-out: Nitrite Production as Percentage of Control
  activity at 2 µg/mL: 98.9%
RAW 264.7 cells [2]; [4]
  activity at 10 µg/mL: 97.7%

## chitopentose
RAW 264.7 cells [2]; [5]
  Nitrite Production: 47.0 ± 0.5 µM
  Nitrite Production as Percentage of Control: 70.6 Percentage of Control
RAW 264.7 cells [2]; [3]
  Nitrite Production: 42.7 ± 1.2 µM
RAW 264.7 cells [2]; [6]
  Nitrite Production as Percentage of Control: 65.1 Percentage of Control
RAW 264.7 cells [2]
  effect on NO production (in words): did substantially decrease NO production
